Data as given in patent US20120204273A1, “COMPOSITIONS RELATING TO A PHOSPHOPROTEIN AND METHODS OF USE” (SANFORD-BURNHAM MEDICAL RESEARCH INSTITUTE, priority 2010, published 2012).

System: HA-CDP138
Experiment: Phosphorylation of HA-CDP138 in CHO-T cells (anti-HA IP, PAS antibody blot)
Assay type: cell-based, hamster
Conditions: insulin 100 nM, 15 min
Source text: FIG. 1, panels A-D, show an uncharacterized C2 domain-containing protein encoded by 5730419I09Rik is a novel phosphoprotein identified in insulin-stimulated adipocytes using a SILAC phosphoproteomic approach. (A): Schematic procedure for SILAC quantitative proteomics used for identification and quantification of peptide from CDP138 (5730419I09Rik). Top right panel: quantification of CDP138 peptide from different groups of adipocytes. Lower right panel: Schematic diagram of CDP138 and the identified phosphorylation sites. (B): Confirmation of CDP138 phosphorylation induced by insulin. CHO-T cells expressing HA-CDP138, or differentiated 3T3-L1 adipocytes were treated with or without insulin (100 nM) for 15 min. A third sample was pretreated with wortmannin (100 nM, WM) for 20 min or LY294002 (50 μM, LY) for 1 hour before insulin stimulation. […] CDP138, pS473-Akt and Akt protein were also detected with total cell lysates. […] Whole cell extracts (25 μg total protein) from different tissues (lean mice, left panel) and epididymal fat pads from both ob/ob and lean mice (24 weeks old, Jackson Lab, Bar Harbor, Me.; middle panel) were analyzed by immunoblotting with antibodies against CDP138, IRS-1, Akt, Erk1/2, and β-actin. Right panel: quantification of CDP138 protein levels in fat tissues from lean and obese mice. […]

Substance: insulin
- phosphorylation of HA-tagged CDP138 detected with PAS antibodies: stimulates phosphorylation
